Measurements as given in patent US7915270B2, “Oxazole ketones as modulators of fatty acid amide hydrolase” (The Scripps Research Institute, priority 2006, dated 2011).

How the values were obtained:
neuropathic pain = conditions: rats; WO 02/087569; cited from earlier work
[1] = tested on: acute thermal nociception; conditions: rats; WO 02/087569; cited from earlier work
Rat FAAH = molecular target: T1, Rat FAAH (Rattus norvegicus, UniProt P97612); assay: Assay Method 2: FAAH assay, 3H-anandamide hydrolysis in cell homogenate (SK-N-MC cells transfected with rat FAAH); format: biochemical; conditions: 3H-AEA 80 nM, rt 1 h, pH 9
T1 construct: expressed in transfected cells
T1 sequence (P97612 1-579): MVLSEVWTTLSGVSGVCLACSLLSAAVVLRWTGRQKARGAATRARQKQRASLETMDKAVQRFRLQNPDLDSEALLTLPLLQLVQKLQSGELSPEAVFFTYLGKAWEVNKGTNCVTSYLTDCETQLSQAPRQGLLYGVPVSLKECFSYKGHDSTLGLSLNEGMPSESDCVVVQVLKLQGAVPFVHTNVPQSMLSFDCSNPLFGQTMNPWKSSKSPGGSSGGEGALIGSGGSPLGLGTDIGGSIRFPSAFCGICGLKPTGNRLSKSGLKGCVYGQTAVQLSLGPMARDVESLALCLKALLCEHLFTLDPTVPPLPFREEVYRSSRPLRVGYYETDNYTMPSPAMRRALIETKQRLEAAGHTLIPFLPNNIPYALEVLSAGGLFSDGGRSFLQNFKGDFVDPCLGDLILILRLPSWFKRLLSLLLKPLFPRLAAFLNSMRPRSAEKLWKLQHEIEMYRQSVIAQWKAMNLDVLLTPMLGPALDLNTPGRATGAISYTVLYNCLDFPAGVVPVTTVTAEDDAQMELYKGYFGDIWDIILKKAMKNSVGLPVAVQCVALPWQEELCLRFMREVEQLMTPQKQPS
Experimental: A. Transfection of Cells with Rat FAAH
(§1) A 10-cm tissue culture dish with a confluent monolayer of SK—N-MC cells was split 2 days (d) prior to transfection. Using sterile technique, the media was removed and the cells were detached from the dish by the addition of trypsin. One fifth of the cells were then placed onto a new 10-cm dish. Cells were grown in a 37° C. incubator with 5% CO2 in Minimal Essential Media Eagle with 10% Fetal Bovine Serum. After 2 d, cells were approximately 80% confluent. These cells were removed from the dish with trypsin and pelleted in a clinical centrifuge. The pellet was re-suspended in 400 μL complete media and transferred to an electroporation cuvette with a 0.4 cm gap between the electrodes. Supercoiled rat FAAH cDNA (1 μg) was added to the cells and mixed. The voltage for the electroporation was set at 0.25 kV, and the capacitance was set at 960 μF. After electroporation, the cells were diluted into complete media (10 mL) and plated onto four 10-cm dishes. Because of the variability in the efficiency of electroporation, four different concentrations of cells were plated. The ratios used were 1:20, 1:10, and 1:5, with the remainder of the cells being added to the fourth dish. The cells were allowed to recover for 24 h before adding the selection media (complete media with 600 μg/mL G418). After 10 d, dishes were analyzed for surviving colonies of cells. Dishes with well-isolated colonies were used. Cells from individual colonies were isolated and tested.
The assay mixture consisted of 50 μL of the cell homogenate, 10 μL of the test compound, and 40 μL of anandamide [1-^3H-ethanolamine] (^3H-AEA, Perkin-Elmer, 10.3 Ci/mmol), which was added last, for a final tracer concentration of 80 nM. The reaction mixture was incubated at rt for 1 h. During the incubation, 96-well Multiscreen filter plates (catalog number MAFCNOB50; Millipore, Bedford, Mass., USA) were loaded with 25 μL of activated charcoal (Multiscreen column loader, catalog number MACL09625, Millipore) and washed once with 100 μL of MeOH. […] After the 1 h incubation, 60 μL of the reaction mixture were transferred to the charcoal plates, which were then assembled on top of the DYNEX plates using Centrifuge Alignment Frames (catalog number MACF09604, Millipore). The unbound labeled ethanolamine was centrifuged through to the bottom plate (5 min at 2000 rpm), which was preloaded with the scintillant, as described above. The plates were sealed and left at rt for 1 h before counting on a Hewlett Packard TopCount.

FAAH [2] = molecular target: T2, FAAH (Homo sapiens, UniProt O00519); assay: Assay Method 1B: FAAH assay, 3H-anandamide hydrolysis in cell homogenate (T84 or SK-N-MC cells transfected with human FAAH); format: biochemical; parameters: expressed in transfected cells; conditions: 3H-AEA 80 nM, rt 1 h, pH 9
T2 sequence (O00519 1-579): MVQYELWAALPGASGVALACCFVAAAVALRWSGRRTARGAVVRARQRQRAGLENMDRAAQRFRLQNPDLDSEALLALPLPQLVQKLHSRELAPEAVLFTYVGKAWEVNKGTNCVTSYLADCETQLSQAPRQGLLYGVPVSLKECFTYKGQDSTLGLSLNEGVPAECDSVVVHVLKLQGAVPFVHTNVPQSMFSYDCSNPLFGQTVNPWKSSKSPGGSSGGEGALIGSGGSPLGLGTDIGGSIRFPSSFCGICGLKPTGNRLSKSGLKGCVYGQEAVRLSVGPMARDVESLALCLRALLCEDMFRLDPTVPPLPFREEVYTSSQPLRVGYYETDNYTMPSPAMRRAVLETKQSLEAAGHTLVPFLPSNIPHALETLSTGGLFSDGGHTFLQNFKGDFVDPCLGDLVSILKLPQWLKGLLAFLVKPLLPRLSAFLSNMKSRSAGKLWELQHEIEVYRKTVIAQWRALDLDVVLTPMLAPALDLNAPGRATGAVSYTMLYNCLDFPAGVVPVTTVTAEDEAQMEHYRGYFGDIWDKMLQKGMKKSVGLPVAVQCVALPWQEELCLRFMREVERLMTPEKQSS
Experimental: as §1, with “Transfection of Cells with Human FAAH A 10-cm” for “A 10-cm”, “electrodes. Supercoiled human FAAH cDNA” for “electrodes. Supercoiled rat FAAH cDNA”, “and tested. […] The reaction mixture was incubated at rt for 1 h. During the incubation, 96-well Multiscreen filter plates (catalog number MAFCNOB50; Millipore, Bedford, Mass., USA) were loaded with 25 μL of activated charcoal (Multiscreen column loader, catalog number MACL09625, Millipore) and washed once with 100 μL of MeOH. Also during the incubation, 96-well DYNEX MicroLite plates (catalog number NL510410) were loaded with 100 μL of MicroScint40 (catalog number 6013641, Packard Bioscience, Meriden, Conn., USA). After the 1 h incubation, 60 μL of the reaction mixture were transferred to the charcoal plates, which were then assembled on top of the DYNEX plates using Centrifuge Alignment Frames (catalog number MACF09604, Millipore). The unbound labeled ethanolamine was centrifuged through to the bottom plate (5 min at 2000 rpm), which was preloaded with the scintillant, as described above. The plates were sealed and left at rt for 1 h before counting on a Hewlett Packard TopCount.” for “and tested.”

FAAH [3] = molecular target: T3, FAAH (Rattus norvegicus, UniProt P97612); assay: Assay Method 1A: FAAH enzyme assay, 14C-oleamide hydrolysis, solubilized liver plasma membrane extract;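 further: ki obtained by Dixon analysis, taking the x-intercept of inhibitor concentration versus reciprocal rate plots at fixed substrate level and correcting for substrate concentration relative to Km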
T3 sequence (P97612 1-579): T1 sequence (P97612 1-579)
Experimental: Linear least squares fits were used for all reaction progress curves and R^2 values were consistently >0.97. […] Ki values were determined by the Dixon Method (x-intercepts of weighted linear fits of [I] versus 1/rate plots at constant substrate concentration, which were converted to Ki values using the formula Ki=−xint/[1+[S]/Km]).

[4] = Solubility determination in water; format: physicochemical; conditions: thermodynamic from solid; in water at 5, 1 and 0.1 mg/mL; pH of resulting solutions 7-8.5
Experimental: Physical Chemical Properties
Solubility determinations were made by mixing the test compound in water at 5 mg/mL, 1 mg/mL, and 0.1 mg/mL concentrations. The pH of the resulting solutions was 7-8.5.

[5] = Pharmacokinetic testing, intravenous bolus in rats; format: in vivo; conditions: rat, plasma, 2 mg/kg, male Sprague Dawley rats, 1 mg/mL in 2 mL/kg
Experimental: For each test compound, two male Sprague Dawley Rats (Charles River Laboratories; approx. 300 g body weight) were used. Animals were individually housed, provided food and water ad libitum, and were maintained on a 12 h light and dark cycle. Animals received from the vendor were surgically cannulated by the vendor with right jugular vein and left carotid artery catheters. Animals were acclimatized for at least 5 days after receipt from the vendor prior to investigations.
Animals received a bolus intravenous dose of the test compound at a dose of 1 mg/mL in a volume of 2 mL/kg via the right jugular vein catheter. The intravenous dosing solution was prepared in 55% pharmasolve, 20% cremophor, and […] physiological saline, or 100% saline adjusted to pH 8.0.
Following intravenous administration, blood was collected (sampled 0.35 mL per time point from the left carotid artery catheter) at 0.083, 0.25, 0.5, 1, 2, 4, and 6 h post-dose. Blood was collected into tubes containing EDTA and stored at 4° C. for not more than 2 h. The samples were centrifuged at 10,000 rpm in a micro-centrifuge for 5 min to obtain a plasma fraction. The plasma was stored at between −20 and −80° C. until processed for analysis. These samples were analyzed by LC-MS/MS to determine the plasma level of the compound.
Plasma level vs. time plots were created and WinNonlin (Pharsight Corp.) was used to analyze the data. A non-compartmental pharmacokinetic model was used to determine the pharmacokinetic parameters, including clearance, volume of distribution (Vd), and half-life (t1/2).

thermal nociception [6] = conditions: rats; WO 04/033652; cited from earlier work
FAAH [7] = molecular target: T2, FAAH; conditions: reported; cited from earlier work
thermal nociception [8] = conditions: rats; WO 04/033652; cited from earlier work; remark: listed apart in the source

In the case of Cc1nc(-c2ccccc2)c(-c2ccccc2)n1CCCCCCNC(=O)Oc1ccccc1F [BMS-1], the “analgesic effect in the Chung spinal nerve ligation model” value (neuropathic pain) is given as “analgesic effect” and the “analgesic effect in the Hargraves test” value [1] is given as “analgesic effect”.

Molecule O=C(CCCCCCc1ccccc1)c1ncc(-c2ccc(C(=O)O)s2)o1 [Example 58, 5-(2-(7-Phenylheptanoyl)oxazol-5-yl)thiophene-2-carboxylic acid] has an IC50 (Rat FAAH) of 9 nM, an IC50 (FAAH [2]) of 1 nM and a Ki (FAAH [3]) of 11 nM.

In the case of NS(=O)(=O)c1ccc(-c2cnc(C(=O)CCCCCCc3ccccc3)o2)s1 [Example 59, 5-(2-(7-Phenylheptanoyl)oxazol-5-yl)thiophene-2-sulfonamide], the IC50 (Rat FAAH) is reported as 8 nM, the IC50 (FAAH [2]) is reported as 2 nM and the Ki (FAAH [3]) is reported as 3 nM.

For O=C(CCCCCCc1ccccc1)c1ncc(-c2ccccn2)o1 [Comp. Ex. 1, 7-Phenyl-1-(5-pyridin-2-yl-oxazol-2-yl)-heptan-1-one, reference compound], the solubility [4] was < 100 µg/mL, the Vd [5] was 27.3 L/kg and the clearance [5] was 98.3 mL/min/kg. It also gave a half-life [5] of 3.23 h.

For O=C(CCCCCCc1ccccc1)c1ncc(-c2ccco2)o1 [Comp. Ex. 2, 1-(5-Furan-2-yl-oxazol-2-yl)-7-phenyl-heptan-1-one, reference compound], the solubility [4] was < 100 µg/mL, the Vd [5] was 22.9 L/kg and the clearance [5] was 63.3 mL/min/kg. It also gave a half-life [5] of 3.49 h.

O=C(O)c1ccc(-c2cnc(C(=O)CCCCCCc3ccccc3)o2)cc1 [Example 26, 4-(2-(7-Phenylheptanoyl)oxazol-5-yl)benzoic acid] showed an IC50 (Rat FAAH) of 160 nM, an IC50 (FAAH [2]) of 6 nM and a Ki (FAAH [3]) of 60 nM.

With NS(=O)(=O)c1cccc(-c2cnc(C(=O)CCCCCCc3ccccc3)o2)c1 [Example 20, 3-(2-(7-Phenylheptanoyl)oxazol-5-yl)benzenesulfonamide] the IC50 (Rat FAAH) was 27 nM, the IC50 (FAAH [2]) was 4 nM and the Ki (FAAH [3]) was 2 nM.

Molecule COC(=O)c1ccccc1-c1cnc(C(=O)CCCCCCc2ccccc2)o1 [Example 22, Methyl 2-(2-(7-phenylheptanoyl)oxazol-5-yl)benzoate] has an IC50 (Rat FAAH) of 2200 nM, an IC50 (FAAH [2]) of 260 nM and a Ki (FAAH [3]) of 60 nM.

Molecule COC(=O)c1ccc(-c2cnc(C(=O)CCCCCCc3ccccc3)o2)nc1 [Example 34, Methyl 6-(2-(7-phenylheptanoyl)oxazol-5-yl)nicotinate] has an IC50 (Rat FAAH) of 9 nM, an IC50 (FAAH [2]) of 11 nM and a Ki (FAAH [3]) of 4 nM.

Molecule COC(=O)c1ccc(-c2cnc(C(=O)CCCCCCc3ccccc3)o2)s1 [Example 57, Methyl 5-(2-(7-phenylheptanoyl)oxazol-5-yl)thiophene-2-carboxylate] has an IC50 (Rat FAAH) of 75 nM, an IC50 (FAAH [2]) of 6 nM and a Ki (FAAH [3]) of 7 nM.

In the case of O=C(CCCCCCc1ccccc1)c1ncc(-c2ccccn2)o1 [OL-135], the “analgesic activity in the hot plate test” value (thermal nociception [6]) is given as “analgesic activity”, the “inhibition of FAAH” value (FAAH [7]) is given as “potent inhibitor” and the “analgesic activity in the tail emersion test” value (thermal nociception [8]) is given as “analgesic activity”.

O=C(CCCCCCc1ccccc1)c1ncc(-c2ccccc2C(=O)O)o1 [Example 60, 2-(2-(7-Phenylheptanoyl)oxazol-5-yl)benzoic acid] showed an IC50 (Rat FAAH) of 3000 nM, an IC50 (FAAH [2]) of 440 nM and a Ki (FAAH [3]) of 6000 nM.

In the case of O=C(O)c1ccc(-c2cnc(C(=O)CCCCCCc3ccccc3)o2)o1 [Example 56, 5-(2-(7-Phenylheptanoyl)oxazol-5-yl)furan-2-carboxylic acid], the IC50 (Rat FAAH) is reported as 2 nM, the solubility [4] is reported as > 5000 µg/mL and the IC50 (FAAH [2]) is reported as 0.8 nM. For the same molecule, the Ki (FAAH [3]) was 15 nM.
